Test results reported in ChEMBL document CHEMBL5303762, “Data for DCP probe BI-8668” (2023).
Activity calls are given as the source filed them. No cut-off for these calls is given here.

Assays:
[1] = biological target: Histamine H1 receptor (Homo sapiens) (UniProt P35367); settings: Compound concentration 10.0 uM
[2] = biological target: 5-hydroxytryptamine receptor 1B (Homo sapiens) (UniProt P28222); settings: Compound concentration 10.0 uM
[3] = biological target: 5-hydroxytryptamine receptor 2A (Homo sapiens) (UniProt P28223); test: 5HT2AH_AGON Eurofins SafetyScreen44 (BI); settings: filed as agonist, Compound concentration 10.0 uM
[4] = biological target: Sodium-dependent serotonin transporter (Homo sapiens) (UniProt P31645); test: SLC6A4/H Eurofins SafetyScreen44 (BI); settings: filed as antagonist, Compound concentration 10.0 uM
[5] = biological target: Beta-1 adrenergic receptor (Homo sapiens) (UniProt P08588); test: BETA1/HUM Eurofins SafetyScreen44 (BI); settings: Compound concentration 10.0 uM
[6] = biological target: 5-hydroxytryptamine receptor 5A (Homo sapiens) (UniProt P47898); settings: Compound concentration 10.0 uM
[7] = biological target: L-type calcium channel alpha-1C (dihydropyridine site) (Rattus norvegicus, UniProt P22002); test: CA+/DHPSI/R Eurofins SafetyScreen44 (BI); settings: compound concentration 10 uM, read-out: % Ctrl
[8] = biological target: D(1A) dopamine receptor (Homo sapiens) (UniProt P21728); test: D1/H Eurofins SafetyScreen44 (BI); settings: filed as antagonist, Compound concentration 10.0 uM
[9] = biological target: Amiloride-sensitive sodium channel, ENaC (Homo sapiens, UniProt P37088+P51168+P51170); test: Inhibition of Na+ current by Ussing Chamber; assay type: functional, tissue-based, epithelium
[10] = biological target: Kappa-type opioid receptor (Rattus norvegicus) (UniProt P34975); test: KAPPA/R Eurofins SafetyScreen44 (BI); settings: Compound concentration 10.0 uM
[11] = biological target: Glutamate NMDA receptor (Rattus norvegicus) (UniProt P35439+Q00959+Q00960+Q00961+Q62645+Q8VHN2+Q9R1M7); test: NMDA/R Eurofins SafetyScreen44 (BI); assay type: protein-complex assay; settings: Compound concentration 10.0 uM
[12] = biological target: Alpha-1B adrenergic receptor (Homo sapiens) (UniProt P35368); settings: Compound concentration 10.0 uM
[13] = biological target: voltage-gated sodium channel (site 2) (Rattus norvegicus, UniProt F1LQQ7+O08562+O88420+O88457+P04774+P04775+P08104+P15389+P15390+Q62968); test: NA+/SITE2/R Eurofins SafetyScreen44 (BI); assay type: protein assay; settings: compound concentration 10 uM, read-out: % Ctrl
[14] = biological target: Histamine H2 receptor (Homo sapiens) (UniProt P25021); settings: Compound concentration 10.0 uM
[15] = biological target: Histamine H2 receptor (Homo sapiens) (UniProt P25021); test: H2/APT/HS Eurofins SafetyScreen44 (BI); settings: filed as antagonist, Compound concentration 10.0 uM
[16] = biological target: Kappa-type opioid receptor (Homo sapiens) (UniProt P41145); settings: Compound concentration 10.0 uM
[17] = biological target: Cannabinoid receptor 2 (Homo sapiens) (UniProt P34972); test: CB2/PERIPH/H Eurofins SafetyScreen44 (BI); settings: Compound concentration 10.0 uM
[18] = biological target: T1, 5-hydroxytryptamine receptor 3A (Homo sapiens) (UniProt P46098); test: 5HT3/H Eurofins SafetyScreen44 (BI); settings: Compound concentration 10.0 uM
T1 sequence (whole entry): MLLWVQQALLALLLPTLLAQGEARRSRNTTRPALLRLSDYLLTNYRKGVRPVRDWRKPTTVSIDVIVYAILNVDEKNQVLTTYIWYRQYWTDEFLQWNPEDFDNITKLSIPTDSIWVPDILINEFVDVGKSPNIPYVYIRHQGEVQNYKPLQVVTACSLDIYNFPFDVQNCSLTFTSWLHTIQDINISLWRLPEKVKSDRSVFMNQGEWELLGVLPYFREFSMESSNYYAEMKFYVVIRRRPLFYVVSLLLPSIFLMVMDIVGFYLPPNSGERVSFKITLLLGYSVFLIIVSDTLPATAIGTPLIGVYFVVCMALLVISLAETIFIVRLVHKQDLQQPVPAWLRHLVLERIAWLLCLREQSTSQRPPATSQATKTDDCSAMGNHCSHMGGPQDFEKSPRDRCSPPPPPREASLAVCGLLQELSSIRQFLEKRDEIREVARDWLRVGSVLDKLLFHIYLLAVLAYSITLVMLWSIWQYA

[19] = biological target: Glucocorticoid receptor (Homo sapiens) (UniProt P04150); test: GCORTICOID/H Eurofins SafetyScreen44 (BI); settings: Compound concentration 10.0 uM
[20] = biological target: 3',5'-cyclic-AMP phosphodiesterase 4D (Homo sapiens) (UniProt Q08499); test: PDE4D2 Eurofins SafetyScreen44 (BI); settings: Compound concentration 10.0 uM
[21] = biological target: T2, Muscarinic acetylcholine receptor M1 (Homo sapiens) (UniProt P11229); test: M1/H Eurofins SafetyScreen44 (BI); settings: Compound concentration 10.0 uM
T2 sequence (whole entry): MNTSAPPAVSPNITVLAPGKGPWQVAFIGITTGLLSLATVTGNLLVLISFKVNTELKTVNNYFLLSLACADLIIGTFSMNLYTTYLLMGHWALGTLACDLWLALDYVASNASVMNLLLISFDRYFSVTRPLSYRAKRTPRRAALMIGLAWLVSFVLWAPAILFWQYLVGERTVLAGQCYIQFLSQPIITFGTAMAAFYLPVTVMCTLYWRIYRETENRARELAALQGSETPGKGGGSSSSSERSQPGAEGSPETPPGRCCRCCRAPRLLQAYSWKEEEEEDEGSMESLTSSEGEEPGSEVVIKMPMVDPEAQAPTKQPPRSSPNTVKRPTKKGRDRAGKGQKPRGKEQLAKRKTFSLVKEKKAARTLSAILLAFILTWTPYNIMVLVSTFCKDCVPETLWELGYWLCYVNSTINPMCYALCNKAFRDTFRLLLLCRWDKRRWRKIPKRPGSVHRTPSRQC

[22] = biological target: D(2) dopamine receptor (Homo sapiens) (UniProt P14416); settings: Compound concentration 10.0 uM
[23] = biological target: 5-hydroxytryptamine receptor 2C (Homo sapiens) (UniProt P28335); settings: Compound concentration 10.0 uM
[24] = biological target: T3, Alpha-1A adrenergic receptor (Homo sapiens) (UniProt P35348); test: ALPHA1AH_ANTAG Eurofins SafetyScreen44 (BI); settings: filed as antagonist, Compound concentration 10.0 uM
T3 sequence (whole entry): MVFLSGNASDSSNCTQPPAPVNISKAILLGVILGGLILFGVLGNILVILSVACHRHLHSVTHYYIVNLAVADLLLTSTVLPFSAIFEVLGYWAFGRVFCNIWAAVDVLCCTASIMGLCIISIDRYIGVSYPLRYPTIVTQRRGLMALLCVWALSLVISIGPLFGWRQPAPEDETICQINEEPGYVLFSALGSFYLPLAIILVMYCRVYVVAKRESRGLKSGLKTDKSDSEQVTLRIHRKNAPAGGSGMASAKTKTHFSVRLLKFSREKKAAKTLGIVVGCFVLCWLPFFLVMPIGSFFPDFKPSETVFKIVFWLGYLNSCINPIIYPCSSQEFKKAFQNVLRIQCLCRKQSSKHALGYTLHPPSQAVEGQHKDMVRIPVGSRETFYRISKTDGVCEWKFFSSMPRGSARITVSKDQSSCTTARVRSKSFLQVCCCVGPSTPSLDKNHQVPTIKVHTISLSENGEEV

Chain of Histamine H2 receptor (Homo sapiens) (P25021 whole entry): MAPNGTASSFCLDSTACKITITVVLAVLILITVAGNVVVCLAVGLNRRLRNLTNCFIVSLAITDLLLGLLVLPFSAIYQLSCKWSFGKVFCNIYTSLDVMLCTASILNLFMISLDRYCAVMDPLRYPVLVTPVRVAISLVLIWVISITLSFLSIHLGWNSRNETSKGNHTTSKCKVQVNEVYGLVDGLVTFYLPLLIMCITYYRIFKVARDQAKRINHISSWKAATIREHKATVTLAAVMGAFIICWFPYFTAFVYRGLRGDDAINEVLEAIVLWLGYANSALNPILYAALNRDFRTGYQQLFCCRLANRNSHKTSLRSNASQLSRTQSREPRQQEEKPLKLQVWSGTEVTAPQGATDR
Chain of Alpha-1B adrenergic receptor (Homo sapiens) (P35368 whole entry): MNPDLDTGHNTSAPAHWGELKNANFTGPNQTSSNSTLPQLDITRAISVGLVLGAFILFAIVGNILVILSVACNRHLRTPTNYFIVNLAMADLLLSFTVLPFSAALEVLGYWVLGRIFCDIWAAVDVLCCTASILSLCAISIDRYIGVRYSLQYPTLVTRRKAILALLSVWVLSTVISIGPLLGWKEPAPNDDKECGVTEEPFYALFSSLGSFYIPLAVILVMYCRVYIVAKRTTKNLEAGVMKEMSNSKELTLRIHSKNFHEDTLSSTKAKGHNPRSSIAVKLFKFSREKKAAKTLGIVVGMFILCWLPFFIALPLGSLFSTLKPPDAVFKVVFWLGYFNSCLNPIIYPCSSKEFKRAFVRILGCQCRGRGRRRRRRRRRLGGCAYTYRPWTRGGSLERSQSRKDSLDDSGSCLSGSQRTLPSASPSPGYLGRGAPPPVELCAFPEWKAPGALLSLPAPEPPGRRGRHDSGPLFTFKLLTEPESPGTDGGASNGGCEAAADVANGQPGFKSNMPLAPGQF
Chain of Sodium-dependent serotonin transporter (Homo sapiens) (P31645 whole entry, looked up): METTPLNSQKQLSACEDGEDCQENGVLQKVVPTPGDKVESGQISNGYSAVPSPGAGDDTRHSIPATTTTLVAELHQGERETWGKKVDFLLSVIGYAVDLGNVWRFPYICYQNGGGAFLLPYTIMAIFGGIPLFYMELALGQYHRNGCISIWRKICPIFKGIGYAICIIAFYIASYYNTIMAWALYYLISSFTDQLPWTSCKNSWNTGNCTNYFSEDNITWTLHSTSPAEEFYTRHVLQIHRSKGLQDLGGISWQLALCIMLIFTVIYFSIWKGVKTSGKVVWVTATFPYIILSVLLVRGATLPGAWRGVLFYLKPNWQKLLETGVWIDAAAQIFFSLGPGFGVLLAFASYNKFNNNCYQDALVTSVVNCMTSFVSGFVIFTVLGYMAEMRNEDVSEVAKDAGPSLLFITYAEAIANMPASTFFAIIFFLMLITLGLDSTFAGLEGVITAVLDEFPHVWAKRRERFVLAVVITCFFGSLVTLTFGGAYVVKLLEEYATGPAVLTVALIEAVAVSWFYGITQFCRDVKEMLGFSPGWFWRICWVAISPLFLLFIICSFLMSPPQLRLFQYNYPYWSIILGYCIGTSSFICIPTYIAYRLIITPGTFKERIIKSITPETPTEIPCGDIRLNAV
Chain of Beta-1 adrenergic receptor (Homo sapiens) (P08588 whole entry, looked up): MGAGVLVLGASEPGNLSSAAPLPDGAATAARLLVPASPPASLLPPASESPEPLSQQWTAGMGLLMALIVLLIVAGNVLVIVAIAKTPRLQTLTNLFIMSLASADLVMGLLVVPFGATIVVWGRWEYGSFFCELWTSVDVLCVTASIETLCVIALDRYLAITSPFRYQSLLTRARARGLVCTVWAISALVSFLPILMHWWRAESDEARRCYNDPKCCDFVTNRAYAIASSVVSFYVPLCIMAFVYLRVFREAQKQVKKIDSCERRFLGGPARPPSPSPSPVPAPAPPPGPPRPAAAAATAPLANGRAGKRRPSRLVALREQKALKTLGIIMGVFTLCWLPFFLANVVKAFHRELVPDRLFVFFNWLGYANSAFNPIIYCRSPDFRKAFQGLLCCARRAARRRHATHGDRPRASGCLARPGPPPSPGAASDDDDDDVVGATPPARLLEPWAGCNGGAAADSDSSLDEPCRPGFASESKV
Chain of 5-hydroxytryptamine receptor 2C (Homo sapiens) (P28335 whole entry): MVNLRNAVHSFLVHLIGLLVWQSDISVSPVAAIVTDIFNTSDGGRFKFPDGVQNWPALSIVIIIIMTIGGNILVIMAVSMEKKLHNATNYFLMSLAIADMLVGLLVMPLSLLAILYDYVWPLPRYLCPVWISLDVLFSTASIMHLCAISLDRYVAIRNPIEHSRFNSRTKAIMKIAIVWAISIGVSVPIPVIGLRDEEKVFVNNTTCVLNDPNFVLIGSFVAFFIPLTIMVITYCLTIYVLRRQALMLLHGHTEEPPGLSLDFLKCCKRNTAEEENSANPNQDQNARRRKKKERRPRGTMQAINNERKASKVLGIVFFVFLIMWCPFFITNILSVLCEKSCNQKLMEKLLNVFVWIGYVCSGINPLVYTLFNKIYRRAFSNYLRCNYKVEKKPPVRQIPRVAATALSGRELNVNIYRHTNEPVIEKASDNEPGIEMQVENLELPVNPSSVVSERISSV
Chain of D(2) dopamine receptor (Homo sapiens) (P14416 whole entry): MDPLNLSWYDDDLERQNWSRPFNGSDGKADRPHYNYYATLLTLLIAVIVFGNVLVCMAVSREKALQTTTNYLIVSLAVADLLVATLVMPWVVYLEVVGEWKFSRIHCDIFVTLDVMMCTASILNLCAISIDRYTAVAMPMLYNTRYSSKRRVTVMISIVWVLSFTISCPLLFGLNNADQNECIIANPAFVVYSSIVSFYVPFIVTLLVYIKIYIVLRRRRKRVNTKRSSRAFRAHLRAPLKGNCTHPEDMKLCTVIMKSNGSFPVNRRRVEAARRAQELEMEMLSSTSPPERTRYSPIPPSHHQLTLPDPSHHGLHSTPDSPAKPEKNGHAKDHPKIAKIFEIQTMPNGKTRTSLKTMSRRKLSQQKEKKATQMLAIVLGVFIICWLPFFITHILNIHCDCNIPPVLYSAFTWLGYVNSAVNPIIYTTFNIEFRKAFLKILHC
Chain of 5-hydroxytryptamine receptor 2A (Homo sapiens) (P28223 whole entry): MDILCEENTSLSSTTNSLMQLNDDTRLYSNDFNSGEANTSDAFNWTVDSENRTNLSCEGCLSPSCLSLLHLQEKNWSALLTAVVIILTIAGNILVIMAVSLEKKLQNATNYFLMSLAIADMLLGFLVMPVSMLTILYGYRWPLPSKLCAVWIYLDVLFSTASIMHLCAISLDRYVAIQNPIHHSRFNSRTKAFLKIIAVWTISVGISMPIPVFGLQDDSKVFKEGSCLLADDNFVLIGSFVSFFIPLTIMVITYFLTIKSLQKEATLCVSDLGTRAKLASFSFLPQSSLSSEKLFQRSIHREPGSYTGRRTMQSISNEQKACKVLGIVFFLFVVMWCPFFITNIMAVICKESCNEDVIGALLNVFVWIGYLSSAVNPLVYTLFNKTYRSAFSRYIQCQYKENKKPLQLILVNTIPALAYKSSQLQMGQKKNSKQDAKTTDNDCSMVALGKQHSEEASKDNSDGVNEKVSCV
Chain of Glucocorticoid receptor (Homo sapiens) (P04150 whole entry): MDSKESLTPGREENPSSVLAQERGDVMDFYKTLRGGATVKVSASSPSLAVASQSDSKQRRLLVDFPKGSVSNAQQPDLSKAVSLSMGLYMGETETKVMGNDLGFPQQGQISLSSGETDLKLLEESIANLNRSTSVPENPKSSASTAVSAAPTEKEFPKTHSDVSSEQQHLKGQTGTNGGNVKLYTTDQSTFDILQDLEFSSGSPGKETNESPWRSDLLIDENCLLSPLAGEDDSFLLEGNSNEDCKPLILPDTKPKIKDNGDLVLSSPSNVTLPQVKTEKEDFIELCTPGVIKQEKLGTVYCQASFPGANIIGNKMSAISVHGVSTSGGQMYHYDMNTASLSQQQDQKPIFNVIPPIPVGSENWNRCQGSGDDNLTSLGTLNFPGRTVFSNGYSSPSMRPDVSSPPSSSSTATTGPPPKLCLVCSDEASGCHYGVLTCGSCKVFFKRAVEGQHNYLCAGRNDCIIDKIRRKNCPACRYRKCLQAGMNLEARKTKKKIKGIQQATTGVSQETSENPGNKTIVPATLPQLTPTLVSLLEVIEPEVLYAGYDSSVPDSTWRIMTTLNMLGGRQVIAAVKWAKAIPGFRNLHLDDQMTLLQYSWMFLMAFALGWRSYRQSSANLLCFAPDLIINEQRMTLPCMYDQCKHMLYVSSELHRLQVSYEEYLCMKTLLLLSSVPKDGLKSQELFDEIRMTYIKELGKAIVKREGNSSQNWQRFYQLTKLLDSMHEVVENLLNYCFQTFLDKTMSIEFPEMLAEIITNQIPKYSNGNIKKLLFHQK
Chain of 5-hydroxytryptamine receptor 5A (Homo sapiens) (P47898 whole entry): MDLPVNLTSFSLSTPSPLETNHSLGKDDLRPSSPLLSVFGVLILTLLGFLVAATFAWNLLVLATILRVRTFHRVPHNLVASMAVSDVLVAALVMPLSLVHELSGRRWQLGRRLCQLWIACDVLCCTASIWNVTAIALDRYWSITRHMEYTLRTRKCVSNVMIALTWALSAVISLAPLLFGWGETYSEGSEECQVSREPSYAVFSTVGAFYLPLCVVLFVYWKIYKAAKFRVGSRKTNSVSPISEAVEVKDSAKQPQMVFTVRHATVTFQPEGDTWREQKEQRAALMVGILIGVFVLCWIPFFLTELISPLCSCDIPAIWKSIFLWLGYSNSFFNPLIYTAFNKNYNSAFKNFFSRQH
Chain of Cannabinoid receptor 2 (Homo sapiens) (P34972 whole entry): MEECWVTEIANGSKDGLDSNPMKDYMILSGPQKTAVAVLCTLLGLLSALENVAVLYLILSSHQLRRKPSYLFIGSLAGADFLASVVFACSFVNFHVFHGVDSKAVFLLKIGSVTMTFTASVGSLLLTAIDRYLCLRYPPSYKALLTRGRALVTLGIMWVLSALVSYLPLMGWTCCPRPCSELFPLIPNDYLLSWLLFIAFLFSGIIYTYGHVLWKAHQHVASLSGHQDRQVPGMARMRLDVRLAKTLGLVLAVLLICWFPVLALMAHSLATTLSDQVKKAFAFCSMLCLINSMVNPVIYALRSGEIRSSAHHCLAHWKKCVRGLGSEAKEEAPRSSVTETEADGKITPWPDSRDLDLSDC

| IC50 [9] | SMILES | residual activity [3] [%] | residual activity [4] [%] | residual activity [5] [%] | activity at 10 µM [7] | residual activity [8] [%] | residual activity [11] [%] | activity at 10 µM [13] | residual activity [15] [%] | residual activity [17] [%] | residual activity [18] [%] | residual activity [19] [%] | residual activity [20] [%] | residual activity [21] [%] | residual activity [24] [%] | also measured |
| --- | --- | --- | --- | --- | --- | --- | --- | --- | --- | --- | --- | --- | --- | --- | --- | --- |
| 0.017 µM (active) | CCn1c(CNC(=O)c2nc(Cl)cnc2N)[n+](CC)c2ccc(C(=O)N(C)CCN(C)C)cc21 | 97 | 97 | 97 | 89% (not active) | 103 | 105 | 66% (not active) | 117 | 119 | 101 | 115 | 99 | 50 | 45 | inhibition [1]: -1.28%; inhibition [2]: 8.35%; inhibition [6]: -6.08%; residual activity [10]: 101%; inhibition [12]: 44.9%; inhibition [14]: 27.9%; inhibition [16]: 25.3%; inhibition [22]: -8.76%; inhibition [23]: 1.01% |
| > 10 µM (not active) | CCn1c(CNC(=O)c2ncc(C)nc2N)[n+](CC)c2ccc(C(=O)N(C)CN(C)C)cc21 | 91 | 31 | 105 | 87% (not active) | 102 | 100 | 87% (not active) | 120 | 96 | 99 | 97 | 87 | 76 | 63 | – |
